Laboratory results as given in patent US20120214875A1, “PHENOX[…]” (priority 2011, published 2012).
“And” between values parts separate entries of the source, which are not always exact repeats. Equal values may be shown once.

Tests used:
[1] = Stability of phenoxybenzamine in various solvents; format: physicochemical
Experimental: Various solvents were examined for their abilities to stabilize phenoxybenzamine. The solvents examined were alcohol, acetonitrile (ACN), methanol (MeOH), acidified solvents (e.g., acidified MeOH and acidified ACN). Phenoxybenzamine in these solvents was not stable for 24 hr at 4° C. The stability of phenoxybenzamine was examined in acidified ACN with 0.5%, 1% and 2% formic acid (“FA”). Phenoxybenzamine was stable for ˜3 hr at RT and 4° C. The measured amount of phenoxybenzamine for neat standard in 0.5% FA in ACN was higher than those using 1% FA in ACN, and 2% FA in ACN.
The stability of phenoxybenzamine was examined in acidified MeOH (80% MeOH containing 0.1% TFA). Phenoxybenzamine was stable for at least 48 hours at 4° C., −25° C. and −70° C.
(§1) The stability of phenoxybenzamine in acidified plasma samples containing 1% FA, 1% H3PO4, 2% H3PO4 or 0.1N HCl was tested.

[2] = Processed sample integrity; format: physicochemical; conditions: for Amount Found: single replicates; for % Difference: ~112 hours vs 0.0 hours, 4° C. ± 4° C.
Experimental: (§2) Phenoxybenzamine and the internal standard phenoxybenzamine-d5 were extracted from 0.2 mL of human plasma, using EDTA (potassium K2 salt) as the anticoagulant and containing 1.3% of H3PO4 as stabilizer, by solid phase extraction into 0.8 mL of 0.1% TFA in 80% methanol, followed by dilution with 0.4 mL of 0.1% TFA. An aliquot of this extract was injected into a high performance liquid chromatography system and detected using an API 3000 tandem mass spectrometer with HSID interface and quantitated using peak area ratio method. Method sensitivity and selectivity were achieved by detecting distinct precursor to product ion mass transitions for phenoxybenzamine (304.1→120.0) and the internal standard phenoxybenzamine-d5 (309.1→120.0) at defined retention times under reverse chromatographic conditions.
(§3) Blood plasma was separated from whole blood. The plasma samples should be protected from light and may be stored at −70° C. for use. The plasma samples were thawed in cold tap water and analyzed along with a set of standard samples. All samples were vortexed for about 20 seconds, centrifuged at 3000 rpm for 5 minutes at 4° C.±4° C., and placed in an ice-water bath. 200 uL of plasma was added to polypropylene tubes and kept in ice-water bath. 100 uL of internal standard working solution (40 ng/mL of phenoxybenzamine-d5) was added into all the tubes except those labeled with “BLANK.” 100 uL of 0.1 N HCl in 20% methanol was added to those labeled with BLANK and the tubes were vortexed for about 20 seconds. 400 uL of 1.7% phosphoric acid was added into all tubes. The tubes were vortexed for about 40 seconds and left in an ice-water bath. The Oasis™ HLB 1 cc (30 mg) cartridges (Waters) were washed first with 700 uL methanol and then with 700 uL water. The samples prepared above were then transferred into the cartridges which were then centrifuged at 1000 rpm for 2 minutes at 4° C.±4° C. Cartridges were then first washed with 700 uL water and then washed with 700 uL of 0.1% TFA in 40% methanol. Cartridges were then eluted twice with 400 μL of 0.1% TFA in 80% methanol, and all of the eluates were collected and diluted with 400 μL of 0.1% TFA. The extracted samples were then ready for analysis.
The mean concentration at each time-point was compared with the mean concentration of the zero hour samples.

[3] = Stability of phenoxybenzamine in acidified plasma; format: in vitro ADME
Experimental: as §1

[4] = Autosampler re-injection reproducibility of extracted QC samples; format: physicochemical; conditions: for Amount Found: single replicates; for % Difference: 7° C. ± 4° C.
Experimental: as §2, §3
The mean concentration of the aged re-injected samples was compared with the mean concentration of the initial zero hour samples prepared at the same concentration as the QC samples.

[5] = Stability of phenoxybenzamine in whole blood; format: in vitro ADME, human; conditions: for WB Sample Amount Found, Mean: mean of six; for WB Sample Amount Found: single replicates
Experimental: Stability of phenoxybenzamine in human whole blood was determined by spiking phenoxybenzamine into fresh human whole blood. This was followed by the preparation of the whole blood samples into two sets: one set was immediately processed into plasma and the other set was stored at 4° C.±4° C. for up to two hours and then processed into plasma. Samples were extracted in replicates of six with control blank and analyzed.

[6] = Stability of phenoxybenzamine in neat solution; format: physicochemical
Experimental: The stability of phenoxybenzamine in neat solutions was examined. The measured amount of phenoxybenzamine in neat solution dropped ˜90% in 24 hours at ambient temperature but ˜20% at 4° C.

[7] = QC HIGH 19.232 ng/mL added, 0.0 hours
[8] = QC HIGH 19.232 ng/mL added, ~112 hours at 4° C. ± 4° C.
[9] = QC LOW 0.601 ng/mL added, 0.0 hours
[10] = QC LOW 0.601 ng/mL added, ~112 hours at 4° C. ± 4° C.
[11] = QC HIGH 19.232 ng/mL added, ~75 hours at 7° C. ± 4° C.
[12] = QC HIGH 19.232 ng/mL added, ~110 hours at 7° C. ± 4° C.
[13] = QC LOW 0.601 ng/mL added, ~110 hours at 7° C. ± 4° C.
[14] = human whole blood, ~2 hours at 4° C.±4° C.

Structure (SMILES): CC(COc1ccccc1)N(CCCl)Cc1ccccc1 (racemic) [phenoxybenzamine, (RS)—N-benzyl-N-(2-chloroethyl)-1-phenoxy-propan-2-amine]
- measured amount for neat standard in 0.5% FA in ACN compared with 1% FA and 2% FA in ACN ([1]; 0.5% FA in ACN vs 1% and 2% FA in ACN): higher
- drop, autosampler stability ([1]; 0.5% FA in ACN, ~24 hr): ~70%
- autosampler re-injection stability, time stable ([1]; 80% MeOH containing 0.1% TFA): at least 24 hours
- time stable in acidified MeOH ([1]; 80% MeOH containing 0.1% TFA, 4° C., −25° C. and −70° C.): at least 48 hours
- time stable in acidified ACN ([1]; ACN with 0.5%, 1% and 2% formic acid, RT and 4° C.): ~3 h
- stability in solvents ([1]; alcohol, acetonitrile, methanol, acidified MeOH and acidified ACN, 24 hr at 4° C.): not stable
- time for which integrity of processed samples is not affected ([2]; LOW and HIGH concentrations, 4° C.±4° C.): up to 112 hours
- Amount Found, Mean [2, 7]: 18.178 ng/mL
- Amount Found [2, 7]: 18.305 ng/mL and 18.069 ng/mL and 18.161 ng/mL
- Amount Found, Mean [2, 8]: 18.214 ng/mL
- Amount Found [2, 8]: 18.209 ng/mL and 18.214 ng/mL and 18.220 ng/mL
- % Difference ([2]; QC HIGH): 0.2%
- Amount Found, Mean [2, 9]: 0.601 ng/mL
- Amount Found [2, 9]: 0.590 ng/mL and 0.603 ng/mL and 0.610 ng/mL
- Amount Found, Mean [2, 10]: 0.583 ng/mL
- Amount Found [2, 10]: 0.574 ng/mL and 0.590 ng/mL and 0.586 ng/mL
- % Difference ([2]; QC LOW): −2.9%
- stability in acidified plasma ([3]; plasma containing 0.1N HCl): stable
- stability in acidified plasma ([3]; plasma containing 1% FA): stable except for 1% FA
- stability in acidified plasma ([3]; plasma containing 1% H3PO4): stable
- stability in acidified plasma ([3]; plasma containing 2% H3PO4): stable
- Amount Found, Mean [4, 7]: 18.178 ng/mL
- Amount Found [4, 7]: 18.305 ng/mL and 18.069 ng/mL and 18.161 ng/mL
- Amount Found, Mean [4, 11]: 18.411 ng/mL
- Amount Found [4, 11]: 18.066 ng/mL and 18.686 ng/mL and 18.482 ng/mL
- Amount Found, Mean [4, 12]: 18.423 ng/mL
- Amount Found [4, 12]: 18.179 ng/mL and 18.435 ng/mL and 18.656 ng/mL
- % Difference ([4]; QC HIGH, ~75 hours vs 0.0 hours): 1.3%
- % Difference ([4]; QC HIGH, ~110 hours vs 0.0 hours): 1.3%
- Amount Found, Mean [4, 9]: 0.601 ng/mL
- Amount Found [4, 9]: 0.590 ng/mL and 0.603 ng/mL and 0.610 ng/mL
- Amount Found, Mean ([4]; QC LOW 0.601 ng/mL added, ~75 hours at 7° C. ± 4° C.): 0.615 ng/mL
- Amount Found ([4]; QC LOW 0.601 ng/mL added, ~75 hours in autosampler at 7° C. ± 4° C.): 0.610 ng/mL and 0.646 ng/mL and 0.590 ng/mL
- Amount Found, Mean [4, 13]: 0.603 ng/mL
- Amount Found [4, 13]: 0.602 ng/mL and 0.612 ng/mL and 0.595 ng/mL
- % Difference ([4]; QC LOW, ~75 hours vs 0.0 hours): 2.4%
- % Difference ([4]; QC LOW, ~110 hours vs 0.0 hours): 0.3%
- time for which extracted samples can be re-injected ([4]; extracted samples stored in autosampler at 7° C.±4° C.): up to 110 hours
- WB Sample Amount Found, Mean ([5]; human whole blood, time 0.0 hours): 3.357 ng/mL
- WB Sample Amount Found ([5]; human whole blood, time 0.0 hours, processed immediately into plasma): 3.379 ng/mL and 3.325 ng/mL and 3.381 ng/mL and 3.387 ng/mL and 3.305 ng/mL and 3.365 ng/mL
- WB Sample Amount Found, Mean [5, 14]: 3.297 ng/mL
- WB Sample Amount Found [5, 14]: 3.315 ng/mL and 3.330 ng/mL and 3.365 ng/mL and 3.328 ng/mL and 3.283 ng/mL and 3.160 ng/mL
- % Difference ([5]; human whole blood, ~2 hours vs 0.0 hours, 4° C.±4° C.): −1.8%
- time stable in whole blood ([5]; stored at 4° C.±4° C.): up to 2 hours
- drop of measured amount in neat solution ([6]; 24 hours at 4° C.): ~20%
- drop of measured amount in neat solution ([6]; 24 hours at ambient temperature): ~90%
